Measured values published in paper PMC11440591 (Journal of Medicinal Chemistry, 2024).

Legend:
[1] = tested on: EBOV-GP-pseudotyped virus (pEBOV); assay: microbe, parasite or virus in culture; settings: for inhibition at 10 µM: Zaire ebolavirus, Vero C1008, read-out: %inh@10 μM (pEBOV); for EC50: Vesicular stomatitis virus, Vero C1008, 24 h, read-out: EC50 (pEBOV)
[2] = tested on: wild-type Zaire EBOV Mayinga 1976 strain (EBOV May); assay: microbe, parasite or virus in culture; settings: Zaire ebolavirus, Vero C1008, 72 h, read-out: EC50 (EBOV May)
[3] = tested on: EBOV-GP-pseudotyped virus (pEBOV)
[4] = tested on: VSV-G-pseudotype virus (pVSV-G); assay: microbe, parasite or virus in culture; format: cell-based; settings: Vesicular stomatitis virus, read-out: %inh@10µM (pVSV-G)
[5] = tested on: wild-type Zaire EBOV Mayinga 1976 strain (EBOV May)

Row | SMILES | CC50 (in vitro; chlorocebus sabaeus) | inhibition at 10 µM [1] | EC50 [2] | CC50 at 24 h (in vitro; chlorocebus sabaeus) | inhibition at 10 µM [4] | also measured
1 | O=C(Nc1ccccc1)c1ccc(-c2ccccc2)s1 [compound 2] | > 100 µM | < 75% |  |  |  | 
2 | O=C(Nc1ccc(Cl)cc1)c1ccc(-c2ccccc2)s1 [compound 3] | > 100 µM | < 75% |  |  |  | 
3 | O=C(Nc1cccc(Cl)c1)c1ccc(-c2ccccc2)s1 [compound 4] | > 100 µM | < 75% | > 100 µM |  |  | 
4 | O=C(NCCc1ccccc1)c1ccc(-c2ccccc2)s1 [compound 5] | > 100 µM | < 75% | > 100 µM |  |  | CC50 (in vitro; African green monkey): 100 µM
5 | O=C(Nc1ccc(N2CCOCC2)cc1)c1ccc(-c2ccccc2)s1 [compound 6] | > 100 µM | < 75% |  |  |  | 
6 | O=C(NCCC1CCN(Cc2ccccc2)CC1)c1ccc(-c2ccccc2)s1 [compound 7] | > 100 µM | < 75% |  |  |  | 
7 | O=C(c1ccc(-c2ccccc2)s1)N1CCCC1 [compound 8] | > 100 µM | < 75% |  |  |  | 
8 | O=C(Nc1ccccc1)c1ccc(-c2ccccc2O)s1 [compound 16] | > 100 µM | -36% |  |  |  | 
9 | O=C(Nc1ccc(Cl)cc1)c1ccc(-c2ccccc2O)s1 [compound 17] | > 100 µM | -19% |  |  |  | 
10 | O=C(Nc1cccc(Cl)c1)c1ccc(-c2ccccc2O)s1 [compound 18] | > 100 µM | -35% |  |  |  | 
11 | O=C(NCCc1ccccc1)c1ccc(-c2ccccc2O)s1 [compound 19] | > 100 µM | -22% |  |  |  | 
12 | O=C(Nc1ccc(N2CCOCC2)cc1)c1ccc(-c2ccccc2O)s1 [compound 20] | > 100 µM | -23% |  |  |  | 
13 | O=C(NCCC1CCN(Cc2ccccc2)CC1)c1ccc(-c2ccccc2O)s1 [compound 21] |  | -22% |  | 70 µM |  | 
14 | O=C(c1ccc(-c2ccccc2O)s1)N1CCCC1 [compound 22] | > 200 µM | 0% |  |  |  | 
15 | O=C(Nc1ccc(Cl)cc1)c1ccc(-c2cccc(O)c2)s1 [compound 24] | > 200 µM | 16% |  |  |  | 
16 | O=C(Nc1cccc(Cl)c1)c1ccc(-c2cccc(O)c2)s1 [compound 25] | > 200 µM | -20% |  |  |  | 
17 | O=C(NCCc1ccccc1)c1ccc(-c2cccc(O)c2)s1 [compound 26] | > 200 µM | 10% |  |  |  | 
18 | O=C(Nc1ccc(Cl)cc1)c1ccc(-c2ccc(O)cc2)s1 [compound 28] | > 200 µM | 46% |  |  |  | 
19 | O=C(Nc1cccc(Cl)c1)c1ccc(-c2ccc(O)cc2)s1 [compound 29] | > 200 µM | 27% |  |  |  | 
20 | O=C(NCCc1ccccc1)c1ccc(-c2ccc(O)cc2)s1 [compound 30] | > 200 µM | -63% |  |  |  | 

Row | SMILES | CC50 (in vitro; chlorocebus sabaeus) | inhibition at 10 µM [1] | EC50 [2] | CC50 at 24 h (in vitro; chlorocebus sabaeus) | inhibition at 10 µM [4] | also measured
21 | O=C(NCCC1CCN(Cc2ccccc2)CC1)c1ccc(-c2ccc(O)cc2)s1 [compound 31] | > 100 µM | 41% |  |  |  | 
22 | CC(C)(C)OC(=O)N1CCC(Oc2ccccc2-c2ccc(C(=O)Nc3cccc(Cl)c3)s2)CC1 [compound 34, tert-butyl 4-(2-(5-((3-chlorophenyl)carbamoyl)thiophen-2-yl)phenoxy)piperidine-1-carboxylate] | > 100 µM | -36% |  |  |  | antiviral activity against pEBOV (in words) [3]: complete loss of activity
23 | CC(C)(C)OC(=O)N1CCC(Oc2cccc(-c3ccc(C(=O)Nc4ccccc4)s3)c2)CC1 [compound 39, tert-butyl 4-(3-(5-(phenylcarbamoyl)thiophen-2-yl)phenoxy)piperidine-1-carboxylate] |  | 38% |  |  |  | antiviral activity against pEBOV (in words) [3]: complete loss of activity
24 | O=C(Nc1ccc(Cl)cc1)c1ccc(-c2ccccc2OC2CCNCC2)s1 [compound 47, N-(4-Chlorophenyl)-5-(2-(piperidin-4-yloxy)phenyl)thiophene-2-carboxamide] |  |  | 1.55 µM | 27.9 µM | -117% | SI (CC50/EC50) [3]: 3.32; SI (CC50/EC50) [5]: 18; EC50 [1]: 8.4 µM
25 | O=C(Nc1cccc(Cl)c1)c1ccc(-c2ccccc2OC2CCNCC2)s1 [compound 48, N-(3-Chlorophenyl)-5-(2-(piperidin-4-yloxy)phenyl)thiophene-2-carboxamide] |  |  | 1.3 µM | 22.3 µM |  | SI (CC50/EC50) [3]: 4.8; SI (CC50/EC50) [5]: 17.1; EC50 [1]: 4.65 µM
26 | O=C(NCCc1ccccc1)c1ccc(-c2ccccc2OC2CCNCC2)s1 [compound 49, N-Phenethyl-5-(2-(piperidin-4-yloxy)phenyl)thiophene-2-carboxamide] |  |  | 0.79 µM | 29.2 µM | -160% | SI (CC50/EC50) [3]: 5.6; SI (CC50/EC50) [5]: 36.9; EC50 [1]: 5.2 µM
27 | O=C(Nc1ccc(N2CCOCC2)cc1)c1ccc(-c2ccccc2OC2CCNCC2)s1 [compound 50, N-(4-Morpholinophenyl)-5-(2-(piperidin-4-yloxy)phenyl)thiophene-2-carboxamide] |  |  | 7.74 µM | 22 µM | -31% | SI (CC50/EC50) [3]: 2.26; SI (CC50/EC50) [5]: 2.8; EC50 [1]: 9.7 µM
28 | O=C(NCCC1CCN(Cc2ccccc2)CC1)c1ccc(-c2ccccc2OC2CCNCC2)s1 [compound 51, N-(2-(1-Benzylpiperidin-4-yl)ethyl)-5-(2-(piperidin-4-yloxy)phenyl)thiophene-2-carboxamide] |  |  | 2.96 µM | 19.5 µM | -148% | SI (CC50/EC50) [3]: 2; SI (CC50/EC50) [5]: 6.6; EC50 [1]: 9.3 µM
29 | O=C(c1ccc(-c2ccccc2OC2CCNCC2)s1)N1CCCC1 [compound 52, (5-(2-(Piperidin-4-yloxy)phenyl)thiophen-2-yl)(pyrrolidin-1-yl)methanone] | > 100 µM | -116% |  |  | -108% | antiviral activity against pEBOV (in words) [3]: completely inactive
30 | O=C(Nc1ccc(Cl)cc1)c1ccc(-c2cccc(OC3CCNCC3)c2)s1 [compound 54, N-(4-Chlorophenyl)-5-(3-(piperidin-4-yloxy)phenyl)thiophene-2-carboxamide] |  |  | 1.12 µM | 10 µM | 30% | SI (CC50/EC50) [3]: 2.8; SI (CC50/EC50) [5]: 8.9; EC50 [1]: 3.53 µM
31 | O=C(Nc1cccc(Cl)c1)c1ccc(-c2cccc(OC3CCNCC3)c2)s1 [compound 55, N-(3-Chlorophenyl)-5-(3-(piperidin-4-yloxy)phenyl)thiophene-2-carboxamide] |  |  | 1.86 µM | 15 µM | -4% | SI (CC50/EC50) [5]: 8.0; EC50 [1]: 7.5 µM
32 | O=C(NCCc1ccccc1)c1ccc(-c2cccc(OC3CCNCC3)c2)s1 [compound 56, N-Phenethyl-5-(3-(piperidin-4-yloxy)phenyl)thiophene-2-carboxamide] |  |  | 4.93 µM | 10 µM | -182% | SI (CC50/EC50) [3]: 1.98; SI (CC50/EC50) [5]: 2.0; EC50 [1]: 5.03 µM
33 | O=C(Nc1ccc(Cl)cc1)c1ccc(-c2ccc(OC3CCNCC3)cc2)s1 [compound 58, N-(4-Chlorophenyl)-5-(4-(piperidin-4-yloxy)phenyl)thiophene-2-carboxamide] |  |  | 2.42 µM | 10 µM | -12% | SI (CC50/EC50) [3]: 1.39; SI (CC50/EC50) [5]: 4.13; EC50 [1]: 7.18 µM
34 | O=C(Nc1cccc(Cl)c1)c1ccc(-c2ccc(OC3CCNCC3)cc2)s1 [compound 59, N-(3-Chlorophenyl)-5-(4-(piperidin-4-yloxy)phenyl)thiophene-2-carboxamide] |  |  | 1.19 µM | 26 µM | 5% | SI (CC50/EC50) [3]: 3.8; SI (CC50/EC50) [5]: 21.8; EC50 [1]: 7.91 µM
35 | O=C(NCCc1ccccc1)c1ccc(-c2ccc(OC3CCNCC3)cc2)s1 [compound 60, N-Phenethyl-5-(4-(piperidin-4-yloxy)phenyl)thiophene-2-carboxamide] |  | -8% |  | 10 µM | -12% | antiviral activity against pEBOV (in words) [3]: completely inactive
36 | O=C(NCCC1CCN(Cc2ccccc2)CC1)c1ccc(-c2ccc(OC3CCNCC3)cc2)s1 [compound 63, N-(2-(1-Benzylpiperidin-4-yl)ethyl)-5-(4-(piperidin-4-yloxy)phenyl)thiophene-2-carboxamide] | > 100 µM | 58% |  |  | 12% | antiviral activity against pEBOV (in words) [3]: completely inactive
37 | O=C(Nc1ccccc1)c1ccc(-c2ccccc2OC2CCN(Cc3ccccc3)CC2)s1 [compound 64] | > 200 µM | 27% |  |  |  | antiviral activity against pEBOV (in words) [3]: lacked activity
38 | O=C(Nc1ccccc1)c1cnc(-c2ccc(OC3CCNCC3)cc2)s1 [compound 78, N-Phenyl-2-(4-(piperidin-4-yloxy)phenyl)thiazole-5-carboxamide] |  | -96% |  | 50 µM | -32% | 
39 | O=C(Nc1ccccc1)c1cnc(-c2cccc(OC3CCNCC3)c2)s1 [compound 98, N-Phenyl-2-(3-(piperidin-4-yloxy)phenyl)thiazole-5-carboxamide] |  | -8% |  |  | -18% | 
40 | O=C(Nc1ccccc1)c1ccc(-c2ccccc2OC2CCNCC2)o1 [compound 100, N-Phenyl-5-(2-(piperidin-4-yloxy)phenyl)furan-2-carboxamide] |  |  |  | 79 µM | 32% | SI (CC50/EC50) [3]: 3.8; EC50 [1]: 20.7 µM
